Results taken from ChEMBL document CHEMBL3351403, “Lead identification of benzimidazolone and azabenzimidazolone arylsulfonamides as CC-chemokine receptor 4 (CCR4) antagonists” (Bioorg Med Chem, 2014).

Test: Lipophilicity, log D of the compound at pH 7.4 by chromatography
Assay type: physicochemical
Details: buffer

chromatographic logD	Structure (SMILES)
5.3	COc1cccc2c1c(NS(=O)(=O)c1cccc(Cl)c1Cl)nn2C
3.2	COc1cc2[nH]c(=O)[nH]c2cc1NS(=O)(=O)c1cccc(Cl)c1Cl
3.8	COc1cc2c(cc1NS(=O)(=O)c1cccc(Cl)c1Cl)[nH]c(=O)n2C
3.7	COc1cc2[nH]c(=O)n(C)c2cc1NS(=O)(=O)c1cccc(Cl)c1Cl
4.4	COc1cc2c(cc1NS(=O)(=O)c1cccc(Cl)c1Cl)n(C)c(=O)n2C
2.5	COc1cc2c(cc1NS(=O)(=O)c1cccc(Cl)c1Cl)[nH]c(=O)n2CC(N)=O
2.4	COc1cc2[nH]c(=O)n(CC(N)=O)c2cc1NS(=O)(=O)c1cccc(Cl)c1Cl
4.7	COc1cc2c(cc1NS(=O)(=O)c1cccc(Cl)c1Cl)[nH]c(=O)n2C(C)C
4.6	COc1cc2c(cc1NS(=O)(=O)c1cccc(Cl)c1Cl)[nH]c(=O)n2C1COC1
3.2	CCCn1c(=O)[nH]c2cc(NS(=O)(=O)c3cccc(Cl)c3Cl)c(OC)cc21
2.6	COc1cc2c(cc1NS(=O)(=O)c1cccc(Cl)c1Cl)[nH]c(=O)n2CCN(C)C
2.1	COc1cc2c(cc1NS(=O)(=O)c1cccc(Cl)c1Cl)[nH]c(=O)n2C(CO)CO
3	COc1cc2c(cc1NS(=O)(=O)c1cccc(Cl)c1Cl)[nH]c(=O)n2C1CNC1
3.7	COc1cc2c(cc1NS(=O)(=O)c1cccc(Cl)c1Cl)[nH]c(=O)n2C1CN(C(C)=O)C1
2.4	COc1cc2[nH]c(=O)[nH]c2nc1NS(=O)(=O)c1cccc(Cl)c1Cl
3.2	COc1nc2[nH]c(=O)[nH]c2cc1NS(=O)(=O)c1cccc(Cl)c1Cl
